In patent US8017775B2, “1-2-dihydroquinoline derivative having glucocorticoid receptor binding activity” (Santen Pharmaceutical Co., Ltd., priority 2005, dated 2011):

biological target: T1, Recombinant human GR (Homo sapiens, UniProt P04150); test: GR competitor assay by fluorescence polarization (GR binding ratio); settings: positive control 2 mM dexamethasone, a GR binding ratio of 100% or more is indicated by 100%
T1 construct: purchased Invitrogen P2816
T1 sequence (P04150 1-777): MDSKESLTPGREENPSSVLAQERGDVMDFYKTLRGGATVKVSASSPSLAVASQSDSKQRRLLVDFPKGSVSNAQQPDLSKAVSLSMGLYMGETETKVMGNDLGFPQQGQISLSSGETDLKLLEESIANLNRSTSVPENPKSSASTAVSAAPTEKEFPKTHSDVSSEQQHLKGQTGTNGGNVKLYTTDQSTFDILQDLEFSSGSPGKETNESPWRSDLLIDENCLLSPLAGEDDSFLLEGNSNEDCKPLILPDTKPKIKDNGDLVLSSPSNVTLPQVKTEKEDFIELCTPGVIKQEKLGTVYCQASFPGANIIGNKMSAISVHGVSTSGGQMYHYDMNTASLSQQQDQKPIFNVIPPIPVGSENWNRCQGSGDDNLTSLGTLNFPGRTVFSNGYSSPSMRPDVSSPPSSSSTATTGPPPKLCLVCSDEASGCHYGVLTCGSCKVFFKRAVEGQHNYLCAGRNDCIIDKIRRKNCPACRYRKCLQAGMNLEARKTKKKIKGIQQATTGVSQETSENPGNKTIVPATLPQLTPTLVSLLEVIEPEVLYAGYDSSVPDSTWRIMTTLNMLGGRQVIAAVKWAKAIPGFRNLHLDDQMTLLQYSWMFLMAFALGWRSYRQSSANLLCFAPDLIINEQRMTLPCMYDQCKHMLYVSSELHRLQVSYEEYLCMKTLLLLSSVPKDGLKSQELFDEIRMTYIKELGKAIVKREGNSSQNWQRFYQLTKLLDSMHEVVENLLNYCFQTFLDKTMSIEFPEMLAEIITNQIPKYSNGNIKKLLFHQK
Experimental: 1. Evaluation Test for Binding Activity to Glucocorticoid Receptor (hereinafter referred to as “GR”)
In order to evaluate a binding activity to GR, a receptor competitor assay was carried out by a fluorescence polarization method. In the assay, a GR competitor assay kit (manufactured by Invitrogen, cat No. P2816) was used, and a procedure was carried out according to the protocol attached to the kit. Hereinafter, the specific method will be described.
GR screening buffer: A buffer containing 10 mM potassium phosphate (pH 7.4), 20 mM sodium molybdate (Na2MoO4), 0.1 mM ethylene diamine tetraacetic acid (EDTA), 5 mM dithiothreitol (DTT), 0.1 mM stabilizing peptide and 2% dimethylsulfoxide was prepared.
4×GS1 solution: Fluormone™ GS1, which is a fluorescent glucocorticoid ligand, was diluted with GR screening buffer, whereby a 4 nM solution was prepared.
4×GR solution: Recombinant human GR was diluted with GR screening buffer, whereby a 16 nM solution was prepared.
After a test compound was dissolved in dimethylsulfoxide, the resulting solution was diluted with GR screening buffer, whereby a 20 μM test compound solution was prepared.
1) The test compound solution was added in an amount of 25 μL or 10 μL into each well of a 96-well or 384-well plate, and then, 4×GS1 solution and 4×GR solution were added in an amount of 12.5 μL or 5 μL into each well, respectively.
2) The plate was incubated in a dark place at room temperature for 2 to 4 hours.
3) By using a multimode plate reader, Analyst™ HT (manufactured by LJL Biosystems), fluorescence polarization of each well was measured. As the blank, a well containing GR screening buffer in place of the test compound and 4×GS1 solution was used.
4) The same procedure as that in the above 1) to 3) was carried out except that GR screening buffer was used in place of the test compound solution, and the obtained result was taken as the negative control.
5) The same procedure as that in the above 1) to 3) was carried out except that 2 mM dexamethasone was used in place of the test compound solution, and the obtained result was taken as the positive control.
A GR binding ratio (%) was calculated from the following equation.
GR binding ratio (%)=100×[1−(fluorescence polarization of test compound solution−fluorescence polarization of positive control solution)/(fluorescence polarization of negative control solution−fluorescence polarization of positive control solution)]

Row | GR Binding ratio (%) | SMILES
1 | ≥ 100 | COc1ccc(C(=O)OCc2c(-c3ccc(F)cc3OC)ccc3c2C(C)=CC(C)(C)N3)cc1 [Compound 1-19, 6-(4-Fluoro-2-methoxyphenyl)-5-(4-methoxybenzoyloxymethyl)-2,2,4-trimethyl-1,2-dihydroquinoline]
2 | 82 | COc1cc(F)ccc1-c1ccc2c(c1COC(=O)c1cccs1)C(C)=CC(C)(C)N2 [Compound 1-21, 6-(4-Fluoro-2-methoxyphenyl)-5-[(thiophene-2-yl)carbonyloxymethyl]-2,2,4-trimethyl-1,2-dihydroquinoline]
3 | ≥ 100 | COc1cc(F)ccc1-c1ccc2c(c1COC(=O)c1ccccc1C)C(C)=CC(C)(C)N2 [Compound 1-46, 6-(4-Fluoro-2-methoxyphenyl)-5-(2-methylbenzoyloxymethyl)-2,2,4-trimethyl-1,2-dihydroquinoline]
4 | 97 | COc1cc(F)ccc1-c1ccc2c(c1COc1cccc(C)c1)C(C)=CC(C)(C)N2 [Compound 3-21, 6-(4-Fluoro-2-methoxyphenyl)-5-(3-methylphenoxymethyl)-2,2,4-trimethyl-1,2-dihydroquinoline]
5 | 99 | COc1cc(F)ccc1-c1ccc2c(c1COc1ccccc1C)C(C)=CC(C)(C)N2 [Compound 3-22, 6-(4-Fluoro-2-methoxyphenyl)-5-(2-methylphenoxymethyl)-2,2,4-trimethyl-1,2-dihydroquinoline]
6 | ≥ 100 | CCc1ccccc1OCc1c(-c2ccc(F)cc2OC)ccc2c1C(C)=CC(C)(C)N2 [Compound 3-33, 5-(2-Ethylphenoxymethyl)-6-(4-fluoro-2-methoxyphenyl)-2,2,4-trimethyl-1,2-dihydroquinoline]
7 | 98 | COc1cc(F)ccc1-c1ccc2c(c1COc1cc(C)cc(C)c1C)C(C)=CC(C)(C)N2 [Compound 3-44, 6-(4-Fluoro-2-methoxyphenyl)-5-(2,3,5-trimethylphenoxymethyl)-2,2,4-trimethyl-1,2-dihydroquinoline]
8 | 98 | COc1cc(F)c(F)cc1-c1ccc2c(c1COc1ccccc1C)C(C)=CC(C)(C)N2 [Compound 3-45, 6-(4,5-Difluoro-2-methoxyphenyl)-5-(2-methylphenoxymethyl)-2,2,4-trimethyl-1,2-dihydroquinoline]
9 | ≥ 100 | COc1cc(F)ccc1-c1ccc2c(c1COc1cc(F)ccc1C)C(C)=CC(C)(C)N2 [Compound 3-48, 6-(4-Fluoro-2-methoxyphenyl)-5-(5-fluoro-2-methylphenoxymethyl)-2,2,4-trimethyl-1,2-dihydroquinoline]
10 | 98 | COc1cc(F)ccc1-c1ccc2c(c1COc1cc(Cl)ccc1C)C(C)=CC(C)(C)N2 [Compound 3-56, 6-(4-Fluoro-2-methoxyphenyl)-5-(5-chloro-2-methylphenoxymethyl)-2,2,4-trimethyl-1,2-dihydroquinoline]
11 | 98 | COc1cc(F)c(F)cc1-c1ccc2c(c1COc1cc(F)ccc1C)C(C)=CC(C)(C)N2 [Compound 3-57, 6-(4,5-Difluoro-2-methoxyphenyl)-5-(5-fluoro-2-methylphenoxymethyl)-2,2,4-trimethyl-1,2-dihydroquinoline]
12 | ≥ 100 | COc1cc(F)ccc1-c1ccc2c(c1COc1cc(C)ccc1C)C(C)=CC(C)(C)N2 [Compound 3-58, 5-(2,5-Dimethylphenoxymethyl)-6-(4-fluoro-2-methoxyphenyl)-2,2,4-trimethyl-1,2-dihydroquinoline]
13 | ≥ 100 | COc1ccc(C)cc1OCc1c(-c2ccc(F)cc2OC)ccc2c1C(C)=CC(C)(C)N2 [Compound 3-59, 6-(4-Fluoro-2-methoxyphenyl)-5-(2-methoxy-5-methylphenoxymethyl)-2,2,4-trimethyl-1,2-dihydroquinoline]
14 | ≥ 100 | COc1ccc([N+](=O)[O-])cc1OCc1c(-c2ccc(F)cc2OC)ccc2c1C(C)=CC(C)(C)N2 [Compound 3-61, 6-(4-Fluoro-2-methoxyphenyl)-5-(2-methoxy-5-nitrophenoxymethyl)-2,2,4-trimethyl-1,2-dihydroquinoline]
15 | ≥ 100 | C/C=C/c1ccccc1OCc1c(-c2ccc(F)cc2OC)ccc2c1C(C)=CC(C)(C)N2 [Compound 3-62, 6-(4-Fluoro-2-methoxyphenyl)-5-[2-(1-propenyl)phenoxymethyl]-2,2,4-trimethyl-1,2-dihydroquinoline]
16 | ≥ 100 | COc1ccc(F)cc1OCc1c(-c2ccc(F)cc2OC)ccc2c1C(C)=CC(C)(C)N2 [Compound 3-67, 5-(5-Fluoro-2-methoxyphenoxymethyl)-6-(4-fluoro-2-methoxyphenyl)-2,2,4-trimethyl-1,2-dihydroquinoline]
17 | ≥ 100 | COc1cc(F)ccc1-c1ccc2c(c1COc1ccccc1CCO)C(C)=CC(C)(C)N2 [Compound 3-68, 6-(4-Fluoro-2-methoxyphenyl)-5-[2(2-hydroxyethyl)phenoxymethyl)-2,2,4-trimethyl-1,2-dihydroquinoline]
18 | ≥ 100 | COc1cc(F)ccc1-c1ccc2c(c1COc1ccccc1C(C)C)C(C)=CC(C)(C)N2 [Compound 3-69, 5-(2-Isopropylphenoxymethyl)-6-(4-fluoro-2-methoxyphenyl)-2,2,4-trimethyl-1,2-dihydroquinoline]
19 | ≥ 100 | COc1cc(F)ccc1-c1ccc2c(c1COc1cc([N+](=O)[O-])ccc1C)C(C)=CC(C)(C)N2 [Compound 3-72, 6-(4-Fluoro-2-methoxyphenyl)-5-(2-methyl-5-nitrophenoxymethyl)-2,2,4-trimethyl-1,2-dihydroquinoline]
20 | ≥ 100 | C=CCc1ccccc1OCc1c(-c2ccc(F)cc2OC)ccc2c1C(C)=CC(C)(C)N2 [Compound 3-74, 6-(4-Fluoro-2-methoxyphenyl)-5-(2-allylphenoxymethyl)-2,2,4-trimethyl-1,2-dihydroquinoline]
21 | 95 | COc1cc(F)ccc1-c1ccc2c(c1COc1cc(Cl)ccc1Cl)C(C)=CC(C)(C)N2 [Compound 3-85, 5-(2,5-Diclorophenoxymethyl)-6-(4-fluoro-2-methoxyphenyl)-2,2,4-trimethyl-1,2-dihydroquinoline]
22 | ≥ 100 | COc1cc(F)ccc1-c1ccc2c(c1COc1cc([N+](=O)[O-])ccc1C#N)C(C)=CC(C)(C)N2 [Compound 3-91, 5-(2-Cyano-5-nitrophenoxymethyl)-6-(4-fluoro-2-methoxyphenyl)-2,2,4-trimethyl-1,2-dihydraquinoline]
23 | ≥ 100 | COc1cc(F)ccc1-c1ccc2c(c1COc1cc(C=O)ccc1C)C(C)=CC(C)(C)N2 [Compound 3-94, 6-(4-Fluoro-2-methoxyphenyl)-5-(5-formyl-2-methylphenoxymethyl)-2,2,4-trimethyl-1,2-dihydroquinoline]
24 | ≥ 100 | COc1ccc(Cl)cc1-c1ccc2c(c1COc1ccccc1CCO)C(C)=CC(C)(C)N2 [Compound 3-98, 6-(5-Chloro-2-methoxyphenyl)-5-[2-(2-Hydroxyethyl)phenoxymethyl]-2,2,4-trimethyl-1,2-dihydroquinoline]
25 | ≥ 100 | COc1ccc(F)cc1-c1ccc2c(c1COc1ccccc1CCO)C(C)=CC(C)(C)N2 [Compound 3-99, 6-(5-Fluoro-2-methoxyphenyl)-5-[2-(2-hydroxyethyl)phenoxymethyl]-2,2,4-trimethyl-1,2-dihydroquinoline]
